Measurements published in PubChem BioAssay (NCI).
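Exposure lasted 48 hours, with cells grown in 96-well plates and compounds tested at five concentrations. GI50: concentration for 50% inhibition of growth. TGI marks complete inhibition of growth.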

Columns and labels:
Assay in all cases: DTP human tumour cell line panel, 48 h
[1] = tested on: DMS 114 small cell lung
[2] = tested on: EKVX NSCLC
[3] = tested on: KM20L2 colon
[4] = tested on: NCI-H226 lung
[5] = tested on: OVCAR-3 ovarian
[6] = tested on: HOP-92 NSCLC
[7] = tested on: BT-549 breast
[8] = tested on: DU-145 prostate
[9] = tested on: MCF7 breast
[10] = tested on: MDA-MB-435
[11] = tested on: NCI/ADR-RES ovarian

## NC(N)=NCCCC(NCc1c2ccccc2[n+]([O-])c2ccccc12)C(=O)O (stereo not given)
[1]
  TGI: > 100 µM
[2]
  TGI: > 100 µM
[3]
  TGI: > 100 µM
[4]
  TGI: > 100 µM
[5]
  TGI: > 100 µM

## C=CCCCCn1c2ccccc2c2c(C)c3c[n+](C)ccc3c(C)c21
[1]
  TGI: 0.811 µM
[6]
  TGI: 0.783 µM
[3]
  TGI: 2.31 µM
[5]
  TGI: 1.52 µM

## NS(=O)(=O)c1ccc(N=Nc2nc3[nH]cnc(=S)c3[nH]2)cc1
[7]
  TGI: > 37.9 µM
[8]
  TGI: 41.1 µM
[2]
  TGI: > 100 µM
[6]
  TGI: > 100 µM
[9]
  TGI: > 100 µM
[10]
  TGI: > 100 µM
[4]
  TGI: > 76.5 µM
[11]
  TGI: 14.5 µM
[5]
  TGI: > 22.5 µM

## C[N+]1(CCCC[N+]2(C)CCCCCCC2)CCCCCCC1
[7]
  TGI: > 100 µM
[8]
  TGI: > 100 µM
[2]
  TGI: > 100 µM
[6]
  TGI: > 100 µM
[10]
  TGI: > 100 µM
[4]
  TGI: > 100 µM
[11]
  TGI: > 100 µM
[5]
  TGI: > 100 µM

## Cc1n(-c2ccccc2)c2c([n+]1Cc1ccc([N+](=O)[O-])cc1)C(=O)c1ccccc1C2=O
[7]
  TGI: 3.18 µM
[1]
  TGI: 1.49 µM
[8]
  TGI: 3.28 µM
[2]
  TGI: 5.7 µM
[6]
  TGI: 4.3 µM
[3]
  TGI: 9.84 µM
[9]
  TGI: 2.75 µM
[10]
  TGI: 3.12 µM
[4]
  TGI: 15.1 µM
[11]
  TGI: 5.61 µM
[5]
  TGI: 0.854 µM

## CCN(CC)CCOCC1CCCN2CCCCC12 (stereo not given)
[7]
  TGI: > 100 µM
[8]
  TGI: > 100 µM
[2]
  TGI: > 100 µM
[6]
  TGI: > 100 µM
[9]
  TGI: > 100 µM
[10]
  TGI: > 100 µM
[4]
  TGI: > 100 µM
[11]
  TGI: > 100 µM
[5]
  TGI: > 100 µM

## Cc1cc(=O)[nH]c(NN2C(Cl)C(=O)C2c2c(O)ccc3ccccc23)n1 (stereo not given)
[1]
  TGI: 56 µM
[2]
  TGI: > 100 µM
[6]
  TGI: 34.5 µM
[3]
  TGI: 66.8 µM
[4]
  TGI: 45.6 µM
[5]
  TGI: 64.9 µM

## c1ccc(C2=NN[C@H](c3cn(-c4ccccc4)nc3-c3ccccc3)C2)cc1
[7]
  GI50: 5.9 µM
  TGI: > 100 µM
[8]
  GI50: 71.8 µM
  TGI: > 100 µM
[2]
  GI50: 4 µM
  TGI: > 100 µM
[6]
  GI50: 2.72 µM
  TGI: 8.07 µM
[9]
  GI50: > 100 µM
  TGI: > 100 µM
[10]
  GI50: > 100 µM
  TGI: > 100 µM
[11]
  GI50: 3.98 µM
  TGI: > 100 µM

## CCCC(=O)[O-].CCCC(=O)[O-].N.N.N.N.[Co+3].[O-][Cl+3]([O-])([O-])[O-]
[2]
  TGI: > 100 µM
[6]
  TGI: > 100 µM
[3]
  GI50: > 100 µM
  TGI: > 100 µM
[5]
  TGI: > 100 µM

## COc1cc(O)c2c(c1O)C(=O)c1cc(C)ncc1C2=O
[1]
  TGI: > 50 µM
[2]
  TGI: > 50 µM
[3]
  TGI: > 50 µM
[4]
  TGI: > 50 µM
[5]
  TGI: 45.9 µM

## CCCCCCCSCC1OC(n2cnc3c(N)ncnc32)C(O)C1O (stereo not given)
[1]
  TGI: 71.1 µM
[2]
  TGI: 56.2 µM
[6]
  TGI: 58 µM
[3]
  TGI: > 100 µM
[4]
  TGI: > 100 µM

## Nc1nc(Sc2ccc([N+](=O)[O-])cn2)c2[nH]cnc2n1
[7]
  TGI: 52.1 µM
[8]
  TGI: 43.8 µM
[2]
  TGI: 50.2 µM
[6]
  TGI: 38.7 µM
[9]
  TGI: > 100 µM
[10]
  TGI: > 46.1 µM
[4]
  TGI: 57.3 µM
[11]
  TGI: 30.3 µM
[5]
  TGI: > 75 µM

## Cc1n(CC(C)C)c2c([n+]1CC(=O)c1ccc([N+](=O)[O-])cc1)C(=O)c1ccccc1C2=O
[6]
  TGI: 0.128 µM
[3]
  TGI: 0.113 µM
[9]
  TGI: < 0.01 µM
[4]
  TGI: 0.0523 µM
[11]
  TGI: 2.91 µM
